pIC50: −log10 of the molar value. Where two headings read alike, the source gives them in different places. Bounds are passed on as bounds.

Experiment [1] addresses T1, PRMT5 (Homo sapiens, UniProt O14744).
T1 construct: purchased Viva (custom protein)
Description: PRMT5 biochemical IC50 assay with SAM as cofactor. Particulars: PRMT5, SAM as cofactor; read-out: SAM IC50.

Experiment [2] has as its target T1, PRMT5. Briefly: PRMT5 biochemical IC50 assay with no cofactor. The settings on record: PRMT5, no cofactor. The source says: Table 1 indicates IC50 values (μM) against PRMT5 for exemplary compounds in the presence of SAM as cofactor, with no cofactor, and with MTA as cofactor, respectively (columns 4-6). […] Ki values can be calculated from the IC50 values as described in the Examples section. As detailed in the Examples section, for the assay performed in the presence of SAM, IC50=Ki×1.5 (Ki=IC50/1.5).

Experiment [3] deals with T1, PRMT5. Description: PRMT5 biochemical IC50 assay with MTA as cofactor. Particulars: PRMT5, MTA as cofactor; read-out: MTA IC50.
Experiment [4] deals with HAP1 MTAP-deleted cell line. Description: Viability assay, MTAP-deleted cell line. Particulars: read-out: HAP1 MTAP deleted viability. The experiment is classed as cell-based. The source says:
Table 1 additionally indicates IC50 values in a viability assay for the MTAP-deleted cell line (column 10), indicating the effect of treatment with compound on cell survival.

Where [5] appears, read: Homo sapiens, HAP1, viability assay, MTAP-deleted cell line.
Setting [6] is: read-out: No Cofactor/ rel IC50.

T1 sequence (O14744 whole entry): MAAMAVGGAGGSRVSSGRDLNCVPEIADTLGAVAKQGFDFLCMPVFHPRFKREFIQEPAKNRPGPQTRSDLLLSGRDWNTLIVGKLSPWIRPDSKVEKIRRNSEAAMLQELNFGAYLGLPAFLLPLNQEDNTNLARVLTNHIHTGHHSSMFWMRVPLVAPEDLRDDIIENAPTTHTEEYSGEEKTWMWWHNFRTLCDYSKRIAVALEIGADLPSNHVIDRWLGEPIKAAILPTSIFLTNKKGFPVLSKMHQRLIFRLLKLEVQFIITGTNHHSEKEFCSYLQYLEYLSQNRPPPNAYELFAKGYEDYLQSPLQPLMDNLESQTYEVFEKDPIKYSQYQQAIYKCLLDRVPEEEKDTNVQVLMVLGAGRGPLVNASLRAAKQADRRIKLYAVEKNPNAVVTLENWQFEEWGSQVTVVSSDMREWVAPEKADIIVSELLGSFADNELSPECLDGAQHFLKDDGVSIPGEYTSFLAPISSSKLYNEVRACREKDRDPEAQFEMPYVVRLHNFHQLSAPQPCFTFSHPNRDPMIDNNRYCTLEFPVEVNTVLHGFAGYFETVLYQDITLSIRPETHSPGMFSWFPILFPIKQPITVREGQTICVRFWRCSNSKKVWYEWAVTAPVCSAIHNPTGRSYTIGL
T1 sequence (Q9BQA1 whole entry partner): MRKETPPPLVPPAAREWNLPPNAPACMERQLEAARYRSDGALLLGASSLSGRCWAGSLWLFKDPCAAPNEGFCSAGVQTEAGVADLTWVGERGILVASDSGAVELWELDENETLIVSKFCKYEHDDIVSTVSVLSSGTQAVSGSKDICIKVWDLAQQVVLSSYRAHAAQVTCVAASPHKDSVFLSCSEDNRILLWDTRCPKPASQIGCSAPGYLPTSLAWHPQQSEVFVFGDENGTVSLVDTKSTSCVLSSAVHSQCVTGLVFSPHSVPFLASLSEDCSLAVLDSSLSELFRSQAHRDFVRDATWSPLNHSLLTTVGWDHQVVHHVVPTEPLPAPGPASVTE

Consider `C[C@H]1CC[C@H](c2ccc(N[C@H](C)C(=O)N(C)C)cc2)N(C(=O)C(=O)Nc2cncc(C(N)=O)c2)C1` (racemic) [Compound 414, 5-[[2-[(2R,5S)-2-[4-[[(1R)-2-(Dimethylamino)-1-methyl-2-oxo-ethyl]amino]phenyl]-5-methyl-1-piperidyl]-2-oxo-acetyl]amino]pyridine-3-carboxamide], for which the pIC50 is 6.30 to 7.30 on PRMT5 [1], 6.30 to 7.30 at PRMT5 [2] (read-out: No Cofactor/rel IC50), 6.30 to 7.30 at PRMT5 [3] and less than 5.00 in experiment [4] (setting [5]).

As to `C[C@@H]1CC[C@@H](c2cc(F)cc(F)c2)N(C(=O)C(=O)Nc2cncc(C(N)=O)c2)C1` (racemic) [Compound 416, rac-5-{2-[(2R,5S)-2-(3,5-Difluorophenyl)-5-methylpiperidin-1-yl]-2-oxoacetamido}pyridine-3-carboxamide], the pIC50 was 6.30 to 7.30 on PRMT5 [1], 6.30 to 7.30 at PRMT5 [2] (read-out: No Cofactor/rel IC50), 6.30 to 7.30 at PRMT5 [3] and 5.00 to 6.00 in experiment [4] (setting [5]).

On to `NC(=O)c1cncc(NC(=O)C(=O)N2CC[C@H]3C[C@@H](O)CC[C@@H]3C2)c1` (racemic) [Compound 418, 5-[2-(6-Hydroxy-decahydroisoquinolin-2-yl)-2-oxoacetamido]pyridine-3-carboxamide], for which the pIC50 on PRMT5 [1] was less than 6.30; at PRMT5 [2] (read-out: No Cofactor/rel IC50), less than 6.30; on PRMT5 [3], 6.30 to 7.30; in experiment [4] (setting [5]) it was less than 5.00.

In the case of `NC(=O)c1cncc(NC(=O)C(=O)N2CC[C@@]3(O)CCCC[C@H]3C2)c1` (racemic) [Compound 421, 5-[2-(4a-Hydroxy-decahydroisoquinolin-2-yl)-2-oxoacetamido]pyridine-3-carboxamide], the pIC50 is less than 6.30 on PRMT5 [1], less than 6.30 at PRMT5 [2] (read-out: No Cofactor/rel IC50), 6.30 to 7.30 at PRMT5 [3] and less than 5.00 in experiment [4] (setting [5]).

On to `Cc1cc(NC(=O)C(=O)N2C[C@H](C)CC[C@H]2C2CCNCC2)cnc1N` (racemic) [Compound 708, N-(6-amino-5-methyl-3-pyridyl)-2-[(2R,5S)-5-methyl-2-(4-piperidyl)-1-piperidyl]-2-oxo-acetamide], for which the pIC50 was less than 6.30 on PRMT5 [1]; less than 6.30 on PRMT5 [2] (read-out: No Cofactor/rel IC50); less than 6.30 on PRMT5 [3]; less than 5.00 in experiment [4] (Homo sapiens, HAP1, viability assay, HAP1 MTAP-deleted).

Turning to `Cc1cc(NC(=O)C(=O)N2C[C@H](C)CC[C@H]2c2ccc3c(cnn3C)c2)cnc1N` (racemic) [Compound 922], the pIC50 was 6.30 to 7.30 at PRMT5 [1], 6.30 to 7.30 on PRMT5 [2] (read-out: No Cofactor/rel IC50), more than 7.30 at PRMT5 [3] and more than 6.00 in experiment [4] (setting [5]).

For the compound `COc1ncc(NC(=O)C(=O)N2C[C@@H](C)CC[C@@H]2c2ccc3sc(N)nc3c2)cc1C(N)=O` (racemic) [Compound 954, 5-[[2-[(2R,5S)-2-(2-amino-1,3-benzothiazol-5-yl)-5-methyl-1-piperidyl]-2-oxo-acetyl]amino]-2-methoxy-pyridine-3-carboxamide], the pIC50 was 6.30 to 7.30 on PRMT5 [1], 6.30 to 7.30 at PRMT5 [2] (read-out: No Cofactor/rel IC50), 6.30 to 7.30 at PRMT5 [3] and more than 6.00 in experiment [4] (setting [5]).

With `Cc1cc(NC(=O)C(=O)N2C[C@H](C)CC[C@H]2c2ccc(C(C)O)cc2)cnc1N` (mixture of isomers) [Compound 956, N-(6-amino-5-methyl-3-pyridyl)-2-[(2R,5S)-2-[4-(1-hydroxyethyl)phenyl]-5-methyl-1-piperidyl]-2-oxo-acetamide], the pIC50 on PRMT5 [1] is 6.30 to 7.30; at PRMT5 [2] (read-out: No Cofactor/rel IC50) it was 6.30 to 7.30; at PRMT5 [3], 6.30 to 7.30; in experiment [4] (setting [5]) it was 5.00 to 6.00.

Take `Cc1cc(NC(=O)C(=O)N2C[C@H](C)CC[C@H]2c2ccc3[nH]c(N)nc3c2)cnc1N` (racemic) [Compound 990]: the pIC50 at PRMT5 [1] was 6.30 to 7.30; at PRMT5 [2] (read-out: No Cofactor/rel IC50), 6.30 to 7.30; on PRMT5 [3] it was more than 7.30; in experiment [4] (setting [5]), 5.00 to 6.00.

Consider `CC(=O)NCc1ccc([C@@H]2CC[C@@H](C)CN2C(=O)C(=O)Nc2cnc(N)c(C)c2)cc1` (racemic) [Compound 1036, rac-2-[(2R,5S)-2-[4-(Acetamidomethyl)phenyl]-5-methyl-1-piperidyl]-N-(6-amino-5-methyl-3-pyridyl)-2-oxo-acetamide], for which the pIC50 at PRMT5 [1] was 6.30 to 7.30; at PRMT5 [2] (read-out: No Cofactor/rel IC50), 6.30 to 7.30; on PRMT5 [3] it was 6.30 to 7.30; in experiment [4] (setting [5]), 5.00 to 6.00.

For `Cn1nccc1C1CCCCN1C(=O)C(=O)Nc1cncc(C(N)=O)c1` (single isomer, unassigned) [Compound 59], the pIC50 on PRMT5 [1] is less than 6.30; on PRMT5 [2] (setting [6]), less than 6.30; at PRMT5 [3] it was 6.30 to 7.30; in experiment [4] (setting [5]), less than 5.00.

With `Cc1cc(NC(=O)C(=O)N2C[C@@H]3CC[C@@H](C3)[C@@H]2c2ccccc2)cnc1N` (single isomer, unassigned) [Compound 62], the pIC50 on PRMT5 [1] is less than 6.30; at PRMT5 [2] (setting [6]), less than 6.30; at PRMT5 [3], 6.30 to 7.30; in experiment [4] (setting [5]) it was less than 5.00.

With `C[C@@H]1CCC[C@H](c2ccccc2)N1C(=O)C(=O)Nc1cncc(C(N)=O)c1` (single isomer, unassigned) [Compound 278], the pIC50 is less than 6.30 on PRMT5 [1], less than 6.30 on PRMT5 [2] (read-out: No Cofactor/rel IC50), 6.30 to 7.30 at PRMT5 [3] and less than 5.00 in experiment [4] (setting [5]).

As to `COc1ncc(NC(=O)C(=O)N2CCCCC2C2CCCC2)cc1C(N)=O` (single isomer, unassigned) [Compound 289, 5-(2-(2-cyclopentylpiperidin-1-yl)-2-oxoacetamido)-2-methoxynicotinamide], the pIC50 on PRMT5 [1] is less than 6.30; on PRMT5 [2] (read-out: No Cofactor/rel IC50) it was less than 6.30; on PRMT5 [3], less than 6.30; in experiment [4] (viability assay, MTAP-deleted cell line) it was less than 5.00.

On to `COc1ncc(NC(=O)C(=O)N2C[C@@H](C)CC[C@H]2C2CCCC2)cc1C(N)=O` (single isomer, unassigned) [Compound 295], for which the pIC50 at PRMT5 [1] is less than 6.30; on PRMT5 [2] (read-out: No Cofactor/rel IC50), less than 6.30; at PRMT5 [3], less than 6.30; in experiment [4] (setting [5]), less than 5.00.

As to `CC(=O)N[C@H]1CC[C@H]([C@H]2CC[C@H](C)CN2C(=O)C(=O)Nc2cnc(N)c(C)c2)CC1` (single isomer, unassigned) [Compound 296], the pIC50 at PRMT5 [1] is less than 6.30; on PRMT5 [2] (read-out: No Cofactor/rel IC50), less than 6.30; on PRMT5 [3], 6.30 to 7.30; in experiment [4] (setting [5]), less than 5.00.

As for `COc1ncc(NC(=O)C(=O)N2C[C@@H](C)CC[C@@H]2C2CCCC2)cc1C(N)=O` (single isomer, unassigned) [Compound 298], the pIC50 on PRMT5 [1] is less than 6.30; on PRMT5 [2] (read-out: No Cofactor/rel IC50) it was less than 6.30; on PRMT5 [3], less than 6.30; in experiment [4] (setting [5]) it was less than 5.00.

Consider `Cc1cc(NC(=O)C(=O)N2C[C@@H](C)[C@@H](C)C[C@H]2c2ccccc2)cnc1N` (single isomer, unassigned) [Compound 304], for which the pIC50 at PRMT5 [1] was 6.30 to 7.30; at PRMT5 [2] (read-out: No Cofactor/rel IC50), 6.30 to 7.30; at PRMT5 [3], 6.30 to 7.30; in experiment [4] (setting [5]) it was less than 5.00.

As to `COc1ncc(NC(=O)C(=O)N2C[C@H](C)CC[C@@H]2C2CCCC2)cc1C(N)=O` (single isomer, unassigned) [Compound 312], the pIC50 is 6.30 to 7.30 on PRMT5 [1], less than 6.30 at PRMT5 [2] (read-out: No Cofactor/rel IC50), 6.30 to 7.30 on PRMT5 [3] and less than 5.00 in experiment [4] (setting [5]).

Turning to `Cc1cc(NC(=O)C(=O)N2C[C@@H](C)CC[C@@H]2c2cccc(N(C)C)c2)cnc1N` (single isomer, unassigned) [Compound 387], the pIC50 on PRMT5 [1], on PRMT5 [2] (read-out: No Cofactor/rel IC50) and at PRMT5 [3] was less than 6.30 each time.

`COc1ncc(NC(=O)C(=O)N2C[C@H](C)CC[C@@H]2C2CCCCC2)cc1C(N)=O` (single isomer, unassigned) [Compound 389]: the pIC50 is less than 6.30 on PRMT5 [1], less than 6.30 on PRMT5 [2] (read-out: No Cofactor/rel IC50), 6.30 to 7.30 on PRMT5 [3] and less than 5.00 in experiment [4] (setting [5]).

Consider `C[C@@H]1CC[C@H](c2ccc(O)nc2)N(C(=O)C(=O)Nc2cncc(C(N)=O)c2)C1` (single isomer, unassigned) [Compound 401], for which the pIC50 at PRMT5 [1] is 6.30 to 7.30; at PRMT5 [2] (read-out: No Cofactor/rel IC50), 6.30 to 7.30; on PRMT5 [3] it was more than 7.30; in experiment [4] (setting [5]), less than 5.00.

For the compound `C[C@H]1CC[C@@H](c2ccc(O)nc2)N(C(=O)C(=O)Nc2cncc(C(N)=O)c2)C1` (single isomer, unassigned) [Compound 402], the pIC50 on PRMT5 [1], on PRMT5 [2] (read-out: No Cofactor/rel IC50) and at PRMT5 [3] was less than 6.30 each time.

Take `Cc1ccc([C@H]2CC[C@H](C)CN2C(=O)C(=O)Nc2cncc(C(N)=O)c2)cn1` (single isomer, unassigned) [Compound 645]: the pIC50 at PRMT5 [1], at PRMT5 [2] (read-out: No Cofactor/rel IC50) and on PRMT5 [3] was less than 6.30 in each case.

On to `C[C@@H]1CC[C@@H](c2ccc(C(F)(F)F)c(Cl)c2)N(C(=O)C(=O)Nc2cncc(C(N)=O)c2)C1` (single isomer, unassigned) [Compound 647], for which the pIC50 on PRMT5 [1], at PRMT5 [2] (read-out: No Cofactor/rel IC50) and at PRMT5 [3] was less than 6.30 each time.

As for `C[C@@H]1CC[C@@H](c2cc(Cl)cc(C(F)(F)F)c2)N(C(=O)C(=O)Nc2cncc(C(N)=O)c2)C1` (single isomer, unassigned) [Compound 653], the pIC50 on PRMT5 [1], at PRMT5 [2] (read-out: No Cofactor/rel IC50) and on PRMT5 [3] was less than 6.30 in each case.

As for `Cc1cc(NC(=O)C(=O)N2C[C@H](C)CC[C@H]2c2ccc3c(c2)C(=O)NC3)cnc1N` (single isomer, unassigned) [Compound 656], the pIC50 on PRMT5 [1], on PRMT5 [2] (read-out: No Cofactor/rel IC50) and at PRMT5 [3] was less than 6.30 throughout.
